From patent US10947276B2, “Cell penetrating peptides with improved internalization properties” (SORBONNE UNIVERSITE, priority 2016, dated 2021)

Columns and labels:
[1] = tested on: MCF-7 cells; assay: Intracellular detection of FITC-labelled peptides by FACS; type: cell-based, human; details: MCF-7 (similar in Jurkat); for kinetic of internalization compared to control peptide Mut3DPT: 50 μM, different periods of time
Description: (§1) MCF-7 or Jurkat cell lines were cultured in the presence or in the absence of Mut3DPT (Panel A), Mut4DPT (Panel B), Mut5DPT (Panel C), Mut6DPT (Panel D) or Mut7DPT (Panel E) at 50 μM for different periods of time. The intensity of the FITC fluorescence due to the shuttle internalization was measured by FACS. The results presented in the figure correspond to MCF-7 cells. Similar results were obtained using Jurkat cell line.
as §1, with “different concentrations” for “50 μM”, “4 h.” for “different periods of time.”
Jurkat and MCF-7 cells were incubated with different concentrations of FITC-labeled peptides, then washed and analyzed by FACS in order to detect the intensity of fluorescence into the cells. Similarly, Jurkat and MCF-7 cells were incubated with a given peptide concentration at different times and after washing, cells were analyzed by FACS to estimate the intensity of fluorescence into the cells.
The inventors incubated the cells (Jurkat and MCF-7) with the peptides at different concentrations and different times and analyzed the intensity of the fluorescence into the cells by FACS. The result of kinetic of time incubation is shown on FIG. 1 and the kinetic of peptide concentration is shown on FIG. 2.

[2] = Peptide stability in human serum by MALDI-TOF mass spectrometry; type: in vitro ADME; details: for stability (integrity) compared to control Mut3DPT: 37° C., human serum/plasma, 0 to 24 h
Description: A) Mut3DPT, Mut4DPT, Mut5DPT, Mut6DPT and Mut7DPT peptides were incubated at 37° C. in human serum for different periods of time and their integrity (percentage of intact peptide) were analyzed by mass spectrometry. Similar results were obtained in two independent experiments.
FIG. 5. Mut3DPT, Tat, Penetratin and R8 were treated and analyzed as above. The stability is referred to the intensity of the peaks.
Mut3DPT, as well as Mut4DPT, Mut5DPT, Mut6DPT and Mut7DPT were incubated at 37° C. in 250 μl human serum for different periods of time. Samples were collected and peptide degradation stopped by freezing. Peptides were extracted from collected samples using the ProteoMiner Protein Enrichment System (Bio-Rad). Peptide integrity (percentage of intact peptide) was analyzed by mass spectrometry using a MALDI-TOF (Brücker Autoflex II) following their standard protocols. Every measurement was performed by triplicate. MS data were analyzed using appropriate software (Clinprot tools, Flex analysis, Brücker).
The inventors have analyzed whether these new generated peptides have enhanced stability in plasma, compared to the control Mut3DPT. The peptides were incubated for different periods of time (from 0 to 24 h) at 37° C. with human plasma and their stability was analyzed by mass spectrometry (MS). […] The synthetic peptides Mut5DPT, Mut6DPT and Mut7DPT are also very stable to proteases degradation, compared to the control peptide Mut3DPT. Taken together, we can conclude that there is no modification of the stability upon 24 h of incubation with human serum.

[3] = tested on: MCF-7, PBMC; assay: Internalization of shuttles by fluorescence microscopy, mass spectrometry and flow cytometry; type: cell-based, human; details: MCF-7 25 μM (microscopy), 100 μM (MS); B cells of PBMC 100 μM 4 h
Description: A) MCF-7 cells were grown on coverslips and incubated 1 h at 37° C. with 25 μM of FITC-labelled peptides. Cells were washed 3 times with PBS, fixed with 4% paraphormaldeyde (PFA) and analyzed by fluorescence microscopy. Quantification of the microscopy images is shown. B) MCF7 were grown as above and incubated for different periods of time at 37° C. with 25 μM of FITC-labelled shuttles. Cells were treated as above and analyzed by fluorescence microscopy.
MCF-7 cells were cultured 4 h with 100 μM of each shuttle. After several washing steps, they were lysed and the extracts centrifuged. The intracellular peptide was detected by MS. Pure peptide was used as a control of molecular weight.
A) B cells were isolated (anti-hCD19-APC antibody) from peripheral blood mononuclear cells (PBMC) of healthy donors (HD) or B) chronic lymphocytic leukemia (CLL) patients. Cells were incubated 4 h with 100 μM of the FITC-labelled shuttles. The mean fluorescence intensity was detected by flow cytometry. Non treated cells were used as control.
Peripheral blood mononuclear cells from healthy (HD) donors or chronic lymphocytic leukaemia patients (CLL) were treated with FITC-labelled peptides and them, cells were harvested and washed twice with PBS to remove the extracellular unbound peptide. FITC fluorescence intensity of internalized peptide was measured by flow cytometry (BD Biosciences) by acquiring 10,000 live cells. B cells were selected with anti hCD19-APC labelled antibody. Experiments were carried out three times in duplicate. Untreated cells were used as control.
(§2) For intracellular localization of FITC-labelled peptides, MDA-MB231 or MCF7 cells were seeded in an 8-well Labtek (Thermo Fischer) at a density of 2×10^4 cells/well. Cells were treated with different concentrations of FITC-labelled peptides for different times. Cells were fixed with 4% of formaldehyde for 15 min at room temperature. Samples were washed twice with PBS and mounted in mounting solution containing DAPI. Images were captured with a fluorescence microscopy (Olympus Japan) using 63× magnification objective.
To detect the internalization of the peptides, breast cancer cell line MCF-7 cells were seeded in a 6-well plate at a density of 1×10^6 cells/well in DMEM medium supplemented with 10% FCS. Cells were treated with 100 μM of each shuttle for 4 h at 37° C., then cells were washed once with PBS. Cell pellet was collected by detaching with Trypsin EDTA following several washing step with PBS. Cells were resuspended in lysis buffer (Tris-HCl 50 mM, NaCl 20 mM, pH 8.0, supplemented with protease inhibitors) and lysed with Glass/Teflon potter (Elvehjem homogenizers), then centrifuged for 20 min at 16,000 g at 4° C. The peptides in the supernatant were concentrated with Ziptips (Millpore, ZTC18S096) according to the manufacture's protocol. The internalization of peptide was detected by mass spectrometry (MS) using a MALDI-TOF (Brucker Autoflx II). MS data were analyzed using appropriate software (Clinprot tools, Flex analysis, Brucker).
The inventors incubated the cells (MCF-7, PBMC) with the peptides at different concentrations (respectively 25 μM, and 100 μM) and analyzed the presence of the shuttles into the cells by fluorescence microscopy, mass spectrometry (MS) and flow cytometry.

[4] = tested on: MDA-MB231 cells; assay: Intracellular localization of FITC-labelled peptides by fluorescence microscopy; type: cell-based, human; details: 30 μM, 4 h
Description: MDA-MB231 cells (3×10^4 cells/ml) were grown on cover slips and incubated 4 h with 30 μM of FITC-labelled peptides. Cells were washed 3 times with PBS, fixed with 4% paraformaldeyde (PFA) and analyzed by fluorescence microscopy. Cells treated with mut7DPT-FITC were used as control.
MDA-MB231 cells (3×10^4 cells/ml) were grown on cover slips and incubated with 30 μM of peptide for different periods of time. Cells were washed 3 times with PBS, fixed with 4% PFA and analyzed by fluorescence microscopy.
MDA-MB231 cells (3×10^4 cells/ml) were incubated in cover slips for 3 h with 15 μM of the FITC-labelled peptides associated to a cargo (TEAD or YAP peptides). Cells were washed 3 times with PBS, fixed with 4% PFA and analyzed by fluorescence microscopy.
as §2, with “was” for “or MCF7 cells were”, “3×10^4” for “2×10^4”, “fixed or not” for “fixed”

[5] = tested on: MDA-MB231 cell line; assay: Toxicity of CPP-NLS peptides by FACS; details: 25 and 50 μM, 4 h of incubation
Description: MDA-MB231 cells (6×10^4 cells/ml) were incubated 4 h with two different concentrations of peptide. Toxicity was analyzed by flow cytometry. […] Non treated cells were used as a control.
The peptides were added to MDA-MB231 cell line at 25 and 50 μM and the toxicity was analyzed by FACS upon 4 h of incubation.

[6] = tested on: MDA-MB231 cells; assay: Apoptosis by Annexin V-FITC staining, shuttles associated to TEAD cargo; type: cell-based, human; details: 10 and 25 μM, 4 h or 24 h
Description: MDA-MB231 cells (5×10^4 cells/ml) were cultured in the presence of different concentrations of shuttles or nuclear localization shuttles associated to the cargo TEAD for 4h or 24h (Non-treated, Panel A; Mut3DPT-TEAD, Panel B; NLS18, Panel C; NLS23, Panel D; NLS18 TEAD, Panel E, NLS23 TEAD, Panel F). Apoptosis was estimated by Annexin V-FITC staining. Cells treated with shuttle without cargo or nuclear localisation signal (NLS) were used as control. Standard deviation is shown.
The apoptosis induction of the different shuttles associated to a cargo (TEAD and YAP binding sites) was analyzed by annexinV-FITC staining (e Biosciences). Human breast cancer cell line MDA-MB231 was treated with different concentrations of peptide for 4 h and 24 h. After the treatment, cells were harvested, washed and treated according to the manufacturer protocol. The level of apoptosis was measured by flow cytometry (BD Biosciences, FACS Canto.
We further analyzed whether the weak apoptotic effect of the mut3DPT-TEAD peptide was increased in the new generated tri-functional peptides. Cells were cultured for 4 h or 24 h with 10 and 25 μM of NLS-18 or NLS-23 and apoptosis estimated by Annexin staining (FIG. 16). The association of TEAD interfering peptide to the NLS18 or NLS23 peptides strongly increases the apoptotic effect, compared to the control peptide.

Molecule	kinetic of internalization compared to control peptide Mut3DPT [1]	stability (integrity) compared to control Mut3DPT [2]	internalization compared to the control peptide Mut3DPT [3]	time to plateau of internalization ([1]; 50 μM FITC-labelled peptide) [min]	internalization, ranking among the new peptides [3]	also measured
VKKWKIKWWIKI (shuttle peptide Mut4DPT)	better internalization	as stable as the parental peptide	better internalization	–	–	–
RRWRRWRRWRR (Shuttle peptide Mut6DPT)	rapidly internalized	very stable	better internalization	15	a better internalization	share of the total fluorescence achieved one minute after incubation ([1]; 50 μM FITC-labelled peptide, 1 min): Around 50%
N=C(N)NCCC[C@H](NC(=O)[C@H](CCCNC(=N)N)NC(=O)[C@H](CCCNC(=N)N)NC(=O)[C@H](CCCNC(=N)N)NC(=O)[C@H](CCCNC(=N)N)NC(=O)[C@H](CCCNC(=N)N)NC(=O)[C@H](CCCNC(=N)N)NC(=O)[C@@H](N)CCCNC(=N)N)C(=O)O [Peptide R8, reference compound]	–	–	–	–	–	degradation compared to control Mut3DPT ([2]; 6 h incubation with human serum at 37° C.): stronger degradation; degradation ([2]; 24 h incubation with human serum): extensively degraded
KKKKKWKKWKKK (Shuttle peptide Mut7DPT)	–	very stable	better internalization	30	a better internalization	nuclear staining [4]: does not show nuclear staining; toxicity [5]: none of the peptides show toxicity
VKKKKIKAEIKI-RLQLVEFSAFVEPPDAVD (VKKKKIKAEIKIRLQLVEFSAFVEPPDAVD; Mut3DPT-TEAD)	–	–	–	–	–	apoptotic effect [6]: weak
KKWKKWKKWKK (Shuttle peptide Mut5DPT)	better internalization	very stable	better internalization	–	–	–
